According to PubChem BioAssay AID248 (DTP/NCI, 2004):
Where “and” joins values, the source holds several entries; their conditions need not be identical. Equal values may be shown once. Toxic doses and inconclusive results are not listed. Rule as the data show it: active = T/C of 150% or more; inactive = T/C below 125%.

System: L1210 leukemia ip in BDF1 mice, survival T/C
Test: NCI In Vivo Anticancer Drug Screen. Data for tumor model L1210 Leukemia (intraperitoneal) in B6D2F1 (BDF1) mice
Details: endpoint: mean survival time, higher = longer survival
Outline: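 Read-out is survival time, reported as the treated-group measurement over the vehicle-control measurement.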

[1] = dose: 25.0 mg/kg/injection, schedule: Q01DX009 (ip), vehicle: saline with Tween-80
[2] = dose: 25.0 mg/kg/injection, schedule: Q04DX003 (ip), vehicle: saline with Tween-80
[3] = dose: 50.0 mg/kg/injection, schedule: Q04DX003 (ip), vehicle: saline with Tween-80
[4] = dose: 100.0 mg/kg/injection, schedule: Q04DX003 (ip), vehicle: saline with Tween-80
[5] = dose: 25.0 mg/kg/injection, schedule: Q01DX009 (ip), vehicle: water
[6] = dose: 50.0 mg/kg/injection, schedule: Q01DX009 (ip), vehicle: water
[7] = dose: 100.0 mg/kg/injection, schedule: Q01DX001 (ip), vehicle: saline
[8] = dose: 200.0 mg/kg/injection, schedule: Q01DX001 (ip), vehicle: saline
[9] = dose: 400.0 mg/kg/injection, schedule: Q01DX001 (ip), vehicle: saline
[10] = dose: 100.0 mg/kg/injection, schedule: Q01DX009 (ip), vehicle: Klucel (hydroxypropylcellulose) (HPC)
[11] = dose: 100.0 mg/kg/injection, schedule: Q04DX003 (ip), vehicle: Klucel (hydroxypropylcellulose) (HPC)
[12] = dose: 200.0 mg/kg/injection, schedule: Q04DX003 (ip), vehicle: saline with Tween-80
[13] = dose: 200.0 mg/kg/injection, schedule: Q04DX003 (ip), vehicle: Klucel (hydroxypropylcellulose) (HPC)
[14] = dose: 400.0 mg/kg/injection, schedule: Q04DX003 (ip), vehicle: Klucel (hydroxypropylcellulose) (HPC)
[15] = dose: 100.0 mg/kg/injection, schedule: Q04DX003 (ip), vehicle: saline
[16] = dose: 200.0 mg/kg/injection, schedule: Q04DX003 (ip), vehicle: saline
[17] = dose: 400.0 mg/kg/injection, schedule: Q04DX003 (ip), vehicle: saline

Measured: T/C

CCOC(=O)c1cc2ccccc2oc1=O
inactive: [1] 102 % of control | [2] 103 % of control | dose: 50.0 mg/kg/injection, schedule: Q01DX001 (ip), vehicle: other 95 % of control | dose: 50.0 mg/kg/injection, schedule: Q01DX009 (ip), vehicle: saline with Tween-80 98 % of control | [3] 98 % of control and 89 % of control | dose: 100.0 mg/kg/injection, schedule: Q01DX009 (ip), vehicle: saline with Tween-80 94 % of control | [4] 100 % of control and 103 % of control

CSc1ccccc1N=Cc1c(N)ccc(C)c1C
inactive: dose: 100.0 mg/kg/injection, schedule: Q01DX001 (ip), vehicle: saline with Tween-80 98 % of control | dose: 200.0 mg/kg/injection, schedule: Q01DX001 (ip), vehicle: saline with Tween-80 95 % of control | dose: 400.0 mg/kg/injection, schedule: Q01DX001 (ip), vehicle: saline with Tween-80 98 % of control

O=c1[nH]c2ccc([As](O)O)cc2[nH]1
inactive: dose: 12.5 mg/kg/injection, schedule: Q01DX009 (ip), vehicle: water 109 % of control | [5] 110 % of control | dose: 50.0 mg/kg/injection, schedule: Q01DX001 (ip), vehicle: water 98 % of control | [6] 124 % of control | dose: 100.0 mg/kg/injection, schedule: Q01DX001 (ip), vehicle: water 101 % of control | dose: 200.0 mg/kg/injection, schedule: Q01DX001 (ip), vehicle: water 104 % of control | dose: 400.0 mg/kg/injection, schedule: Q01DX001 (ip), vehicle: water 114 % of control

N#CCC1=CC(=O)C(=O)c2ccccc21
inactive: [7] 102 % of control | [8] 102 % of control | [9] 100 % of control

O=[N+]([O-])c1cc(F)ccc1O
inactive: [10] 94 % of control | [11] 101 % of control | [4] 97 % of control | [12] 106 % of control

O=P(c1ccc[nH]1)(c1ccc[nH]1)c1ccc[nH]1
inactive: dose: 100.0 mg/kg/injection, schedule: Q04DX002 (ip), vehicle: gum acacia 101 % of control | dose: 200.0 mg/kg/injection, schedule: Q04DX002 (ip), vehicle: gum acacia 93 % of control | dose: 400.0 mg/kg/injection, schedule: Q04DX002 (ip), vehicle: gum acacia 108 % of control

O=C(O)c1cc(N2CCCC2)ccn1
inactive: [7] 96 % of control | [8] 101 % of control

CCC(CC)C(=O)NC(N)=O
inactive: [11] 98 % of control | [13] 103 % of control | [14] 98 % of control

CCCc1c2cc(OC)c(OC)cc2cc2c3cc(OC)c(OC)cc3cc[n+]12 (tested in a mixture with another compound)
inactive: dose: 12.5 mg/kg/injection, schedule: Q01DX009 (ip), vehicle: Klucel (hydroxypropylcellulose) (HPC) 109 % of control | dose: 25.0 mg/kg/injection, schedule: Q01DX009 (ip), vehicle: Klucel (hydroxypropylcellulose) (HPC) 107 % of control | dose: 50.0 mg/kg/injection, schedule: Q01DX009 (ip), vehicle: Klucel (hydroxypropylcellulose) (HPC) 106 % of control and 123 % of control | [11] 100 % of control | [13] 110 % of control

COC1(c2ccc(Br)cc2)OC1(C)C (centres undefined)
inactive: [5] 95 % of control | [6] 101 % of control | dose: 100.0 mg/kg/injection, schedule: Q01DX009 (ip), vehicle: water 106 % of control | dose: 200.0 mg/kg/injection, schedule: Q01DX009 (ip), vehicle: water 107 % of control | dose: 400.0 mg/kg/injection, schedule: Q01DX009 (ip), vehicle: water 101 % of control

CC(=O)Oc1cc(OC(C)=O)c(Oc2cc(OC(C)=O)c(OC(C)=O)c(OC(C)=O)c2)c(OC(C)=O)c1
inactive: [4] 97 % of control | [12] 95 % of control | dose: 400.0 mg/kg/injection, schedule: Q04DX003 (ip), vehicle: saline with Tween-80 90 % of control

CCCC[CH2][Sn]([CH2]CCCC)[CH2]CCCC.CCCC[CH2][Sn]([CH2]CCCC)[CH2]CCCC
inactive: dose: 100.0 mg/kg/injection, schedule: Q04DX002 (sc), vehicle: olive oil, sesame oil, peanut oil 115 % of control | dose: 200.0 mg/kg/injection, schedule: Q04DX002 (sc), vehicle: olive oil, sesame oil, peanut oil 99 % of control | dose: 400.0 mg/kg/injection, schedule: Q04DX002 (sc), vehicle: olive oil, sesame oil, peanut oil 105 % of control

CCCCCCCCc1nc2c([nH]1)c(=O)n(C)c(=O)n2C
inactive: dose: 50.0 mg/kg/injection, schedule: Q01DX001 (ip), vehicle: saline 87 % of control | [7] 90 % of control | [8] 90 % of control | [9] 102 % of control

CCOC(=O)c1c(O)[nH]c(=O)c(Br)c1C
inactive: [7] 109 % of control | [15] 89 % of control | [8] 120 % of control | [16] 89 % of control | [9] 117 % of control | [17] 90 % of control

O=C(O)Cc1cccc(C(=O)O)c1
inactive: [7] 103 % of control | [8] 104 % of control | [9] 115 % of control

Nc1ccc(Cc2ccc(N)cc2)cc1
inactive: dose: 25.0 mg/kg/injection, schedule: Q01DX009 (ip), vehicle: gum acacia 95 % of control | dose: 50.0 mg/kg/injection, schedule: Q01DX009 (ip), vehicle: gum acacia 105 % of control | dose: 100.0 mg/kg/injection, schedule: Q01DX009 (ip), vehicle: gum acacia 105 % of control and 112 % of control

CCOC(=O)C1C2OC(=O)C(C(=O)C2CN(CCCl)CCCl)C1c1ccc(OC(C)=O)cc1 (centres undefined)
inactive: dose: 50.0 mg/kg/injection, schedule: Q04DX003 (ip), vehicle: Klucel (hydroxypropylcellulose) (HPC) 93 % of control | [11] 101 % of control | [13] 103 % of control | [14] 97 % of control

CCOC(=O)c1cccc([N+](=O)[O-])c1I
inactive: [15] 93 % of control | [16] 95 % of control | [17] 96 % of control

COc1ccc(C(=O)C(=O)c2ccc(OC)cc2)cc1
inactive: dose: 100.0 mg/kg/injection, schedule: Q04DX002 (ip), vehicle: Klucel (hydroxypropylcellulose) (HPC) 98 % of control | dose: 200.0 mg/kg/injection, schedule: Q04DX002 (ip), vehicle: Klucel (hydroxypropylcellulose) (HPC) 98 % of control | dose: 400.0 mg/kg/injection, schedule: Q04DX002 (ip), vehicle: Klucel (hydroxypropylcellulose) (HPC) 95 % of control

CC1(C)CN(Cc2ccccc2)C(C)(C)CN1N
inactive: dose: 6.25 mg/kg/injection, schedule: Q01DX009 (ip), vehicle: saline with Tween-80 96 % of control | dose: 12.5 mg/kg/injection, schedule: Q01DX009 (ip), vehicle: saline with Tween-80 100 % of control | [1] 102 % of control | [2] 105 % of control | [3] 102 % of control | [4] 113 % of control

COC(=O)c1ccc(C)nc1OC/C=C(\C)CCC=C(C)C
inactive: [7] 104 % of control | dose: 100.0 mg/kg/injection, schedule: Q01DX009 (ip), vehicle: saline 110 % of control | [8] 99 % of control | dose: 200.0 mg/kg/injection, schedule: Q01DX009 (ip), vehicle: saline 102 % of control | [9] 90 % of control | dose: 400.0 mg/kg/injection, schedule: Q01DX009 (ip), vehicle: saline 106 % of control

C=CCOc1ccnc(-c2ccccc2)n1
inactive: dose: 100.0 mg/kg/injection, schedule: Q01DX001 (ip), vehicle: Klucel (hydroxypropylcellulose) (HPC) 92 % of control | dose: 200.0 mg/kg/injection, schedule: Q01DX001 (ip), vehicle: Klucel (hydroxypropylcellulose) (HPC) 95 % of control | dose: 400.0 mg/kg/injection, schedule: Q01DX001 (ip), vehicle: Klucel (hydroxypropylcellulose) (HPC) 98 % of control

CC1=C2CC[C@H]3[C@@H]4CC[C@H](O)[C@@]4(C)CC[C@@H]3[C@@]2(C)CCC1=O
inactive: dose: 100.0 mg/kg/injection, schedule: Q01DX001 (sc), vehicle: steriod suspending solution 98 % of control | dose: 200.0 mg/kg/injection, schedule: Q01DX001 (sc), vehicle: steriod suspending solution 98 % of control | dose: 400.0 mg/kg/injection, schedule: Q01DX001 (sc), vehicle: steriod suspending solution 96 % of control | dose: 800.0 mg/kg/injection, schedule: Q01DX001 (sc), vehicle: steriod suspending solution 96 % of control

Cc1ccc(/C(=C\c2ccccc2)C(=O)c2ccccc2)cc1
inactive: [10] 95 % of control | [11] 93 % of control | dose: 200.0 mg/kg/injection, schedule: Q01DX009 (ip), vehicle: Klucel (hydroxypropylcellulose) (HPC) 92 % of control | [13] 93 % of control | dose: 400.0 mg/kg/injection, schedule: Q01DX009 (ip), vehicle: Klucel (hydroxypropylcellulose) (HPC) 95 % of control | [14] 101 % of control
